Series [1] can be described thus: Renal and hematological toxicity, single i.p. dose (Table 8). Conditions: for BUN d.5: blood urea nitrogen, saline control 20.9; for Body Wt. on d.5: mean, S.D. less than 20%.
The subject of series [2] is M5076 Tumor Model. The series is described as follows: In vivo antitumor activity against M5076 tumor model (Example 3, Table 4). Set-up: species or system BDF1 mice; TGD (Tumor Growth Delay): unit not given beside the values. Conditions: M5076 s.c., BDF1 mice, i.p. days 7, 14, 21, 28; for TGD (Tumor Growth Delay): at optimal dose/MTD. On the procedure: (§1) Each of the platinum complexes was evaluated in vivo against L1210/0, L1210/DDP, L1210/DACH and M5076 cells at several dose levels. […] The data at optimal doses are reproduced in Tables 4-7 along with data for the cyclobutanedicarboxylato, aquasulfato, methylmalonato and tartronato analogs (compounds 1-4 in Table 1).
BDF1 mice inoculated s.c. with 10' M5076 cells on day 0 and drug
administered i.p on days 7, 14, 21, and 28. MTD = Maximum Tolerated Dose
(mg/kg/injection), TGD = Tumor Growth Delay

Series [3] relates to A2780 cells. The series is described as follows: Modified MTT cytotoxicity assay, human ovarian A2780 (Example 2, Table 3). Type of series: cell-based. Conditions: continuous exposure (5 days in table footnote; 7 days in text).
Procedure: (§6) Cytotoxicity was determined by a modified MTT assay. Briefly, the compounds were dissolved in normal saline and sterilized through 0.22 μm disc filters. […] Aliquots (20 μl ) of this, and serially diluted drug solutions, and of complete media (80 μl) were pipetted in triplicate into 96-well microtiler plates immediately before addition of cells. Cells in exponential phase of growth were trypsinized for 3 min, where necessary to dislodge adherent 2780 cells, collected and counted by Coulter counter (Coulter Electronics, Hialeah, Fla.). After diluting the L1210/0 (2,000/ml) and A2780 (5,000/ml) cells to appropriate concentrations, 100 μl aliquots of these cell suspensions were added to each of the wells. […] After a 3 hour incubation, the medium was removed and replaced by 50 μl of 100% DMSO to dissolve MTT formazan crystals. Plates were then agitated on a plate shaker for 5 min, and absorbances were measured at 570 nm with a multiwell scanning spectrophotometer (Dynatech MR600, Chantilly, Va.).
Series [4] relates to Murine Leukemia L1210/0. The series is described as follows: In vivo antitumor activity against murine leukemia L1210/0 (Example 3, Table 5). On the set-up: species or system BDF1 mice. Conditions: L1210/0 i.p., BDF1 mice, drug i.p. days 1, 5, 9; for % T/C (mean survival time of treated/mean survival time of control) × 100: at optimal dose/MTD; for long term survivors/no. tested: figures in parenthesis. On the procedure: as §1
BDF1 mice inoculated i.p. with 10^5 L1210 Leukemiacells on day 0 and
(§2) drug administered i.p. on days 1, 5, and 9. MTD = Maximum Tolerated Dose
(§3) (mg/kg/injection), % T/C = (mean survival time of treated/mean survival
time of control) × 100. Figures in parenthesis indicate long term

For series [5], the system named is Murine Leukemia L1210/DACH. The series is described as follows: In vivo antitumor activity against murine leukemia L1210/DACH (Example 3, Table 6). Conditions: for MTD (Maximum Tolerated Dose) / % T/C (mean survival time of treated/mean survival time of control) × 100 / long term survivors/no. tested: L1210/DACH i.p., BDF1 mice, drug i.p. days 1, 5, 9; for % T/C (mean survival time of treated/mean survival time of control) × 100: at optimal dose/MTD; for long term survivors/no. tested: figures in parenthesis. On the set-up: species or system BDF1 mice. On the procedure: as §1
(§4) BDF1 mice inoculated i.p. with 10^5 L1210 Leukemia cells on day 0 and
as §2, §3
(§5) time of control) × 100. Figures in parenthesis indicated long term

In series [6] the test system is L1210/0 cells. The series is described as follows: Modified MTT cytotoxicity assay, murine leukemia L1210/0 (Example 2, Table 3). Type of series: cell-based. Conditions: L1210/0; MTT, continuous exposure 5 days.
Procedure: as §6
Series [7] deals with Murine Leukemia 1210/DDP. The series is described as follows: In vivo antitumor activity against murine leukemia L1210/DDP (Example 3, Table 7). Set-up: species or system BDF1 mice. On the procedure:
as §1, §4
drug administed i.p. on days 1, 5, and 9. MTD = Maximum Tolerated Dose
as §3, §5

Series [8] has as its system L1210/DACH cells. The series is described as follows: MTT cytotoxicity, tetraplatin-resistant L1210/DACH (Example 5, Table 10). In kind it is cell-based, murine. Conditions: 72 hr (3 days) continuous exposure.
In series [9] the test system is L1210/DDP cells. The series is described as follows: MTT cytotoxicity, cisplatin-resistant L1210/DDP (Example 5, Table 10). Conditions: 72 hr (3 days) continuous exposure. Type of series: cell-based, murine.
In series [10] the test system is L1210/0 cells. The series is described as follows: MTT cytotoxicity, L1210/0 (Example 5, Table 10). Type of series: cell-based, murine. Conditions: 72 hr (3 days) continuous exposure.
Setting [11] is: single i.p. dose (mg/kg): 1,4-DACH-Pt^II CBDCA 300, 1,4-DACH-Pt^IV Cl4 8.0, Tetraplatin 8.0, Cis-platin 12.0, Carboplatin 150.

Usually IC50 stands for the concentration that inhibits the measured activity by half.

For the compound `N.N.O=C([O-])C1(C(=O)[O-])CCC1.[Pt+2]` [Carboplatin], in series [1] (setting [11]), the “BUN d.5” value was found to be 15.8 mg %, the “Survivors on d.14” value is reported as 0/5 and the “Body Wt. on d.5” value is reported as 79 % on control. The “myelotoxicity / myelosuppression (in words)” value in series [1] (single i.p. dose, leucopenia) is recorded as “myelosuppressive”.
On to `NC1CCC(N)CC1.O.O=C([O-])C1(C(=O)[O-])CCC1.[Pt+2]` [Compound 1, Cis-1,4-diaminocyclohexane-1,1-cyclobutanedicarboxylato-platinum(II).H2 O], for which, in series [2], the “MTD (Maximum Tolerated Dose)” value is listed as 200 mg/kg/injection and the “TGD (Tumor Growth Delay)” value is listed as 42.3. The compound further gave an IC50 in [3] of 430 nM. Besides, in series [4], the “MTD (Maximum Tolerated Dose)” value worked out at 200 mg/kg/injection and the “% T/C (mean survival time of treated/mean survival time of control) × 100” value came to 195%. Also, in [5], the “MTD (Maximum Tolerated Dose)” value worked out at 200 mg/kg/injection, the “% T/C (mean survival time of treated/mean survival time of control) × 100” value is listed as 180% and the “long term survivors/no. tested” value is 1/5. In series [1] (setting [11]), the “BUN d.5” value is 18.0 mg % and the “Body Wt. on d.5” value is 99 % on control. Further, in [6], the half-inhibitory concentration (IC50) is 1600 nM. Also, the “antitumor activity in vivo against L1210/DDP (in words)” value in [7] (L1210/DDP) is “inactive”.
Turning to `NC1CCC(N)CC1.O.O=S(=O)([O-])[O][Pt+]` (stereo not drawn) [Compound 2, Cis-1,4-Diaminocyclohexaneaquasulfatoplatinum(II)], the “MTD (Maximum Tolerated Dose)” value in [2] turned out to be 3.1 mg/kg/injection; in series [4], 1.56 mg/kg/injection; in series [5], 1.56 mg/kg/injection. The “TGD (Tumor Growth Delay)” value in [2] is recorded as 12.1. Moreover, the figures for the IC50 in [3] and in series [6] were 50 nM and 80 nM, respectively. In addition, the “% T/C (mean survival time of treated/mean survival time of control) × 100” value in series [4] was over 571%; in series [5], 140%. The “long term survivors/no. tested” value in series [4] is given as 3/5; in series [5], 1/5.
Regarding `CC(C(=O)[O-])C(=O)[O-].N[C@H]1CC[C@@H](N)CC1.O.[Pt+2]` [Compound 3, Cis-1,4-Diaminocyclohexanemethylmalonatoplatinum(II). H2 O], in series [2], the “MTD (Maximum Tolerated Dose)” value is listed as 200 mg/kg/injection and the “TGD (Tumor Growth Delay)” value amounted to 23.62. In series [3], this compound showed an IC50 of 130 nM. In series [4], the “MTD (Maximum Tolerated Dose)” value is reported as 200 mg/kg/injection, the “% T/C (mean survival time of treated/mean survival time of control) × 100” value came to 382% and the “long term survivors/no. tested” value was 1/5. For the same compound, in series [5], the “MTD (Maximum Tolerated Dose)” value was determined as 100 mg/kg/injection, the “% T/C (mean survival time of treated/mean survival time of control) × 100” value worked out at 180% and the “long term survivors/no. tested” value is reported as 1/5. The compound further showed an IC50 in series [6] of 280 nM.
On to `NC1CCC(N)CC1.O=C1[O][Pt][O]C(=O)C1O` [Compound 4, Cis-1,4-diaminocyclohexanetartronatoplatinum(II)], for which the “MTD (Maximum Tolerated Dose)” value amounted to 50 mg/kg/injection in series [2]; 25 mg/kg/injection in [4]; 50 mg/kg/injection in [5]; 50 mg/kg/injection in [7] (L1210/DDP i.p., BDF1 mice, drug i.p. days 1, 5, 9). Moreover, the “TGD (Tumor Growth Delay)” value in [2] is 30.66. Further, the IC50 in series [3] was 110 nM; in series [6] it was 500 nM. Besides, the “% T/C (mean survival time of treated/mean survival time of control) × 100” value in series [4] is on record as 406%; in [5] it was 343%; in series [7] (L1210/DDP i.p., BDF1 mice, drug i.p. days 1, 5, 9, at optimal dose/MTD), 187%. The “long term survivors/no. tested” value is on record as 1/5 in series [4] and 4/5 in series [5]. The “antitumor activity in vivo against L1210/DACH (in words)” value in series [5] (L1210/DACH) is recorded as “highly active”. In [5] (L1210/DACH, Table 6), this compound gave a cure rate of 80%.
Regarding `NC1CCC(N)CC1.O=C1[O][Pt][O]C1=O` (stereo not drawn) [Compound 5, Cis-1,4-diaminocyclohexaneoxalatoplatinum(II)], the values for the half-inhibitory concentration (IC50) in series [3] and in series [6] were 60 nM and 240 nM, respectively.
In the same order, the values of `N[C@H]1CC[C@@H](N)CC1.O=C([O-])CC(=O)[O-].[Pt+2]` [Compound 6, Cis-1,4-diaminocyclohexanemalonatoplatinum(II)] are 80 nM and 340 nM.
In the same order, the values of `NC1CCC(N)CC1.[OH][Pt]([OH])([Cl])[Cl]` (stereo not drawn) [Compound 8, Cis-1,4-diaminocyclohexanedichlorodihydroxoplatinum(IV)] are 140 nM and 880 nM.
The matching figures for `NC1CCC(N)CC1.O=C1[O][Pt]([Cl])([Cl])[O]C(=O)C12CCC2` [Compound 9, Cis-1,4-diaminocyclohexane-1,1-cyclobutanedicarboxylato-dichloroplatinum(IV)]: 50 nM and 140 nM.
On to `NC1CCC(N)CC1.O=C1[O][Pt]([Cl])([Cl])[O]C1=O` [Compound 10, Cis-1,4-diaminocyclohexaneoxalatodichloroplatinum(IV)], for which the IC50 in series [3] stood at 51 nM; in series [6], 200 nM.
In [3], `CC(=O)[O][Pt]([Cl])([Cl])[O]C(C)=O.NC1CCC(N)CC1` [Compound 11, Cis-1,4-diamtinocyclohexanedichlorodiacetatoplatinum (IV)] gave an IC50 of 45 nM.
Regarding `CCC(=O)[O][Pt]([Cl])([Cl])[O]C(=O)CC.N[C@@H]1CCCC[C@H]1N` [Compound 16, (R,R-1,2-DACH)PtCl2 trans-(Propionate)2], the IC50 in series [8] turned out to be 550 nM; in series [9], 560 nM; in series [10], 110 nM.
In the same order, the values of `CCCC(=O)[O][Pt]([Cl])([Cl])[O]C(=O)CCC.N[C@@H]1CCCC[C@H]1N` [Compound 17, (R,R-1,2-diaminocyclohexane)PtCl2 trans(butyrate)2] are 170 nM, 220 nM and 40 nM.
As for `CCCCC(=O)[O][Pt]([Cl])([Cl])[O]C(=O)CCCC.N[C@@H]1CCCC[C@H]1N` [Compound 18, (R,R-1,2-DACH)PtCl2 trans(pentanoate)2], the IC50 in series [8] came out at 240 nM; in series [9] it was 270 nM; in [10], 40 nM.
On to `CCCCCC(=O)[O][Pt]1([Cl])([Cl])([O]C(=O)CCCCC)[NH]C2CCCCC2[NH]1` [Compound 19, (R,R-1,2-DACH)PtCl2 trans-(hexanoate)2], for which the IC50 in [8] was determined as 1500 nM; in series [9], 230 nM; in series [10], 40 nM.
In the same order, the values of `CCCCCCC(=O)[O][Pt]([Cl])([Cl])[O]C(=O)CCCCCC.N[C@@H]1CCCC[C@H]1N` [Compound 20, (R,R-1,2-DACH)PtCl2trans(heptanoate)2] are 2300 nM, 700 nM and 150 nM.
Consider `CCC(=O)[O][Pt]([Cl])([Cl])[O]C(=O)CC.NC1CCC(N)CC1` [Compound 21, (cis-1,4-DACH)PtCl2 trans-(propionate)2], for which the IC50 was 40 nM in series [8], 500 nM in series [9] and 5.5 nM in [10].
Regarding `CCCC(=O)[O][Pt]([Cl])([Cl])[O]C(=O)CCC.NC1CCC(N)CC1` [Compound 22, (cis-1,4-DACH)PtCl2 trans-(butyrate)2], the IC50 in [8] stood at 20 nM; in series [9], 130 nM; in series [10], 1.2 nM.

For the origin of these results see US5434256A, “Diamine platinum complexes as antitumor agents” (priority 1994, dated 1995).
